According to article PMC10477861, “Efficient Mining of Anticancer Peptides from Gut Metagenome” (Advanced Science, 2023):
Where no end group is shown, it is not given here.

Assays:
CT26 = experiment: MTT concentration gradient and CC50 against CT26; format: cell-based, Murine; conditions: CT26 cells, calculated with aatbio IC50 calculator from the concentration gradient
Description: To evaluate the translational relevance of our methodology, we selected these two pACPs for in vivo studies. […] Subcutaneous tumors were established using CT26 cells in athymic nude mice, and the animals were randomized to receive two intratumoral injections of 0.80 mg kg^−1 pACP2283, 0.51 mg kg^−1 pACP1780, or PBS control on day 0 and day 2. The dosage of pACPs was calculated as five times the CC50 of each compound in CT26 cells. Tumor size was monitored daily for six days (Figure 3c).
To evaluate the activity of the 40 potentially effective pACPs, a panel of 16 cancer cell lines was treated, including human CRC cell lines (HT29, Caco‐2, HCT116). Details of the cell lines used, respective media, and culture conditions were presented in Table S1 (Supporting Information). Once the cells reached 60% confluence, it was incubated with each candidate peptide at a concentration of 25 µM pACPs for 24 h. Concurrently, the complete medium was replaced with a maintenance medium containing only 1% FBS. Subsequently, the viability of each cell line using the MTT Cell Proliferation and Cytotoxicity Assay Kit according to the manufacturer's instructions was assessed. […] For the CRC cell line CT26, it was calculated the CC50 value using two peptides (pACP1780 and pACP2283) with relevant data presented in Table S6 (Supporting Information). […]

Caco2 = experiment: MTT primary screening of anticancer activity, Caco2; format: cell-based, Human; conditions: 25 µM pACP, 24 h, maintenance medium 1% FBS, ratio of viability to vehicle (PBS), at least three technical repetitions
Method in brief: (§1)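 MTT read-out of cell survival after a 24 h peptide exposure at 25 µM final c[…]ntration. Medium was switched to 1% FBS maintenance medium at treatment, with cultures at 60% confluence.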

HEK293 cells = experiment: Toxicity to HEK293 cells (MTT); format: cell-based; conditions: 1.5-100 µM pACP, 24 h, maintenance medium 1% FBS
Description: (§2) Furthermore, we investigated the safety of pACP2283 and pACP1780 both in vivo and in vitro. […] Additionally, we conducted an acute toxicity experiment in tumor‐free mice by administering pACPs with increasing concentrations into the abdomen. […] This temporary decrease in body weight growth rate may be attributed to the high concentrations of pACPs, which temporarily disturbed the mice's homeostasis.
(§3) To assess the toxicity of pACP1780 and pACP2283 at the cellular level, HEK293 cells were grown to 60% confluence in complete medium (10% FBS) for 24 h, and then treated with increasing concentrations (1.5, 3, 6, 12.5, 25, 50, and 100 µM) of each pACPs in maintenance medium (1% FBS) for 24 h. The viability of HEK293 cells was determined using the MTT Cell Proliferation and Cytotoxicity Assay Kit following the manufacturer's instructions. For acute toxicity in tumor‐free mice, the pACPs were injected into the abdomen at increasing concentrations of 2, 10, and 50 mg kg^−1 of mouse weight over three days, and the body weights were recorded throughout the process.

SK-BR-3 = experiment: MTT primary screening of anticancer activity, SK-BR-3; format: cell-based; conditions: 25 µM pACP, 24 h, maintenance medium 1% FBS, ratio of viability to vehicle (PBS), at least three technical repetitions
Method in brief: as §1

MDA-MB-231 = experiment: MTT primary screening of anticancer activity, MDA-MB-231; format: cell-based; conditions: 25 µM pACP, 24 h, maintenance medium 1% FBS, ratio of viability to vehicle (PBS), at least three technical repetitions
Method in brief: as §1

CT26 cells = experiment: Transmission electron microscopy of treated CT26 cells; format: cell-based, Murine; conditions: 10× CC50, two hours, triplicate
Description: To explore the anticancer effects of pACP2283 and pACP1780 at the cellular level, we co‐cultured confluent CT26 cells with these pACPs.
Experiments were performed in triplicate with similar results, and a representative figure is shown. c) CD results for the two selected ACPs and the corresponding proportions of secondary structures calculated from CD data using CDNN. Purple represents the water phase, blue represents the represents the peptide mixed with a 20‐fold POPC lipid mixture, and grey represents the peptide mixed with a 20‐fold POPC+POPS lipid mixture.
First, CT26 cancer cells were treated with peptides pACP1780 and pACP2283 for two hours. The digested CT26 cancer cells were then resuspended in double‐strength fixative, which consisted of 2% (w/v) paraformaldehyde and 2.5% (v/v) glutaraldehyde in 10 mM HEPES buffer (pH 7.0). Subsequently, the cells were incubated for 2 h at room temperature on a roller and stored at 4°C. Afterward, the fixed cells were pre‐embedded with agar, subjected to four washes with 5 mM HEPES buffer (pH 7.0) (5 min per wash), and post‐fixed with 1% osmium tetroxide (OsO4) for 30 min. Following post‐fixation, the specimens were rinsed twice with water and dehydrated using an acetone series (5 min each; 30%, 50%, 70%, 85%, 90%, 3×5 min 100%). […]

MDA-MB-436 = experiment: MTT primary screening of anticancer activity, MDA-MB-436; format: cell-based; conditions: 25 µM pACP, 24 h, maintenance medium 1% FBS, ratio of viability to vehicle (PBS), at least three technical repetitions
Method in brief: as §1

HT29 = experiment: MTT primary screening of anticancer activity, HT29; format: cell-based, Human; conditions: 25 µM pACP, 24 h, maintenance medium 1% FBS, ratio of viability to vehicle (PBS), at least three technical repetitions
Method in brief: as §1

MDA-MB-468 = experiment: MTT primary screening of anticancer activity, MDA-MB-468; format: cell-based; conditions: 25 µM pACP, 24 h, maintenance medium 1% FBS, ratio of viability to vehicle (PBS), at least three technical repetitions
Method in brief: as §1

MCF7 = experiment: MTT primary screening of anticancer activity, MCF7; format: cell-based; conditions: 25 µM pACP, 24 h, maintenance medium 1% FBS, ratio of viability to vehicle (PBS), at least three technical repetitions
Method in brief: as §1

tumor-free mice = experiment: Acute toxicity in tumor-free mice; format: in vivo; conditions: for growth rate of body weight: after injection into the abdomen at 50 mg kg-1, gradually recovered over the next five days; for symptoms of illness or body weight loss, acute toxicity: injected into the abdomen at 2, 10 and 50 mg kg-1 over three days, up to 50 mg kg-1
Description: as §2, §3

MDA-MB-453 = experiment: MTT primary screening of anticancer activity, MDA-MB-453; format: cell-based; conditions: 25 µM pACP, 24 h, maintenance medium 1% FBS, ratio of viability to vehicle (PBS), at least three technical repetitions
Method in brief: as §1

B16 = experiment: MTT primary screening of anticancer activity, B16; format: cell-based, Mouse; conditions: 25 µM pACP, 24 h, maintenance medium 1% FBS, ratio of viability to vehicle (PBS), at least three technical repetitions
Method in brief: as §1

T47D = experiment: MTT primary screening of anticancer activity, T47D; format: cell-based; conditions: 25 µM pACP, 24 h, maintenance medium 1% FBS, ratio of viability to vehicle (PBS), at least three technical repetitions
Method in brief: as §1

WWRRAERSVRRFFGTPIGPFPEIFGRRKAHKKKIIAKFDSVNG [pACP2283]
CC50 (CT26): 10.56 µM | Survival rate of cancer cells in primary screening (Caco2): 1.00 | toxicity to HEK293 cells (HEK293 cells): no toxicity to HEK293 cells | Survival rate of cancer cells in primary screening (SK-BR-3): 0.0341 | Survival rate of cancer cells in primary screening (MDA-MB-231): 0.06 | cell membranes by transmission electron microscopy (CT26 cells): disintegrated cell membranes | Survival rate of cancer cells in primary screening (MDA-MB-436): 0.00645 | Survival rate of cancer cells in primary screening (HT29): 0.51 | Survival rate of cancer cells in primary screening (MDA-MB-468): 0.09 | Survival rate of cancer cells in primary screening (MCF7): 0.0549 | growth rate of body weight (tumor-free mice): slight decrease | symptoms of illness or body weight loss, acute toxicity (tumor-free mice): no significant symptoms of illness or body weight loss | Survival rate of cancer cells in primary screening (MDA-MB-453): 0.03 | Survival rate of cancer cells in primary screening (B16): 0.28 | Survival rate of cancer cells in primary screening (T47D): 0.0119

RRFAWIGKLQSRKVRNNIRQYRTKIVRQMRRQIFRQMKQKAE [pACP1780]
CC50 (CT26): 6.23 µM | Survival rate of cancer cells in primary screening (Caco2): 0.74 | toxicity to HEK293 cells (HEK293 cells): no toxicity to HEK293 cells | Survival rate of cancer cells in primary screening (SK-BR-3): 0.03 | Survival rate of cancer cells in primary screening (MDA-MB-231): 0.09 | cell membranes by transmission electron microscopy (CT26 cells): disintegrated cell membranes | Survival rate of cancer cells in primary screening (MDA-MB-436): 0.00535 | Survival rate of cancer cells in primary screening (HT29): 0.33 | Survival rate of cancer cells in primary screening (MDA-MB-468): 0.19 | Survival rate of cancer cells in primary screening (MCF7): 0.0113 | growth rate of body weight (tumor-free mice): slight decrease | symptoms of illness or body weight loss, acute toxicity (tumor-free mice): no significant symptoms of illness or body weight loss | Survival rate of cancer cells in primary screening (MDA-MB-453): 0.085 | Survival rate of cancer cells in primary screening (B16): 0.41 | Survival rate of cancer cells in primary screening (T47D): 0.0167
